The source of these data is patent US12152034B2, “FGFR inhibitors and methods of making and using the same” (Relay Therapeutics, Inc., priority 2020, dated 2024).

Each structure is given as a SMILES string. Entries after “also recorded” stand apart in the source; their conditions may differ.

Format in all cases: physicochemical
Data set [1] is described as follows: Solubility in Fasted State Simulated Intestinal Fluid (FaSSIF) and final pH in solution, salt screen of compound I-2. The conditions noted are these: for Final pH: final pH in solution of the FaSSIF solubility sample. As to the method:
The free base of Compound I-1 (compound I-2, 30 mg) was suspended in IPA (20 Vol., 600 μl at 50° C.). The suspensions were then cooled down to 5° C. at 0.1° C./min and were held at this temperature for 16 hrs. Stirring (500 rpm) was maintained throughout. Any gums that formed were maturated between 25 and 50° C. (4 hours at each temperature for 24 hrs). The suspensions were isolated by filtration under suction and air dried then analysed by XRPD. Any new patterns identified by XRPD were analysed further by NMR, TGA, DSC and stability at 40 C/75% RH for 1 week.
Several samples were analyzed for solubility in Fasted State Simulated Intestinal Fluid (FaSSIF) and final pH in solution.

The nature of data set [2]: Storage at 40° C./75% RH for 7 days (one week), form checked by XRPD. Conditions: 40° C./75% RH, one week (7 days). As to the method: The suspensions were then cooled down to 5° C. at 0.1° C./min and were held at this temperature for 16 hrs. Stirring (500 rpm) was maintained throughout. Any gums that formed were maturated between 25 and 50° C. (4 hours at each temperature for 24 hrs). The suspensions were isolated by filtration under suction and air dried then analysed by XRPD. Any new patterns identified by XRPD were analysed further by NMR, TGA, DSC and stability at 40 C/75% RH for 1 week.

A short description of data set [3]: Solubility measurements in SGF, FeSSIF and FaSSIF with XRPD of residual solids. Conditions: for solubility in FaSSIF (in words): simulated fasting state intestinal fluid. From the text:
The results from the solubility measurements in simulated gastric fluid (SGF), simulated fed state conditions in the small intestines (FeSSIF), and simulated fasting state conditions in the small intestines fluid (FaSSIF) are summarised in Table 12. The salts show reduced solubility in SGF compared to the free form.
Crystalline FB Form A, HCl Form A, and the sufate salt Form A were scaled up for solubility analysis.
HCl Form A was successfully scaled up for solubility analysis.

The nature of data set [4]: Solubility assessment in solvents by aliquot addition (5-40 vol, 25° C., then heating). The conditions noted are these: for Observation after treatment: 40 vol; for solubility in the solvents tested (in words): 13 solvents, up to 40 vol. As to the method:
Compound II-1 (40 mg) was treated with an aliquot of solvent (200 μl for 5 vol, 400 μl for 10 vol, 800 μl for 20 vol) and left to stir at 25° C. for 15 minutes. After 15 minutes, suspensions were treated with another aliquot of solvent and left to stir for the same duration again. Any solutions were removed from stirring and further solvent additions. This procedure was repeated up to 40 vol.
At 40 vol, any remaining suspensions were heated to 40° C. at a rate of 10° C./min. Samples that remained as suspensions at 40° C. were moved to the maturation chamber (RT/50° C.) for 4 days. All solutions from solvent additions were heated to 50° C. before cooling to 5° C. at a rate of 0.1° C./min, then held at 5° C. overnight. […]

Data set [5] can be described thus: Hygroscopicity suggested by Thermal Gravimetric Analysis (TGA) weight loss. The conditions noted are these: suggested by TGA weight loss / 1H NMR solvent content. The method, then:
Thermal Gravimetric Analysis (TGA): TGA data was collected on a TA Instruments Q5000 TGA. A predefined amount of the sample, 2.0 to 10.0 mg, was placed in an aluminum pan and heated at 10° C./minute from 40° C. to 300° C., or varied as experimentation dictated. A purge of dry nitrogen at 25 ml/minute was maintained over the sample. The instrument control and data acquisition are acquired using Q Advantage software release version 5.5.23. The data was processed and presented using the TA Universal Analysis 2000 software version 4.5A build 4.5.0.5.

The nature of data set [6]: Solubility in organic solvents quoted in competitive suspension equilibration studies. The conditions noted are these: organic solvent or mixture.
[7] abbreviates: listed as Compound III-1 Form A.
[8] abbreviates: listed as Compound III-1 Form B.

Turning to `C=C(C)C(=O)Nc1ccc(-c2c(-c3ccc(Oc4nccc(C)n4)c(F)c3)c3c(N)ncnc3n2C)cc1` [Compound I-4], the “Solubility in FaSSIF” value in data set [1] (Fasted State Simulated Intestinal Fluid, solids from salt screen in IPA, listed as Sulfate - Form B) is 1.2 µg/mL. In data set [1] (listed as Sulfate - Form B), the “Final pH” value is reported as 5.86.

For the molecule `C#Cc1cc(OC)c(-c2c(-c3ccc(Oc4nccc(C)n4)c(F)c3)c3c(C)ncnc3n2C)cn1` [Compound III-1, 6-(6-ethynyl-4-methoxypyridin-3-yl)-5-(3-fluoro-4-((4-methylpyrimidin-2-yl)oxy)phenyl)-4,7-dimethyl-7H-pyrrolo[2,3-d]pyrimidine], the “XRPD after storage at 40° C./75% RH for 7 days” value in data set [2] (setting [7]) was “no change in form”; in data set [2] (setting [8]), “conversion to Form A (plus additional peaks)”; in data set [2] (listed as Compound III-1 Form C), “no change in form”. Moreover, the “XRPD of residual solids after solubility measurement” value in data set [3] (all media (SGF, FeSSIF, FaSSIF)) is “remained unchanged”. In addition, the “solubility in FaSSIF (in words)” value in data set [3] is given as “lowest solubility”. Moreover, the Observation after treatment entry was “Suspension” in data set [4] (2-Propanol, after maturation (RT/50° C.) 4 days); “Suspension” in data set [4] (10% Water/IPA, after maturation (RT/50° C.) 4 days); “Clear” in data set [4] (10% Water/MeCN, after cooling from 50° C. to 5° C.); “Very thin” in data set [4] (Acetone, after cooling from 50° C. to 5° C.); “Suspension” in data set [4] (Ethanol, after maturation (RT/50° C.) 4 days); “Suspension” in data set [4] (Ethyl acetate, after maturation (RT/50° C.) 4 days). The Observation after treatment result in data set [4] (Isopropyl acetate, after maturation (RT/50° C.) 4 days) is “Suspension”; in data set [4] (MEK, after maturation (RT/50° C.) 4 days), “Suspension”; in data set [4] (Methanol, after cooling from 50° C. to 5° C.) it was “Very thin”; in data set [4] (TBME, after maturation (RT/50° C.) 4 days) it was “Suspension”; in data set [4] (THF, after cooling from 50° C. to 5° C.), “Clear”; in data set [4] (Water, after maturation (RT/50° C.) 4 days) it was “Suspension”. In data set [4] (n-Heptane, after maturation (RT/50° C.) 4 days), the Observation after treatment result is listed as “Suspension”. Besides, the “solubility (solvent volumes to give a clear solution)” value came out at 40 vol in data set [4] (10% water/MeCN, 50° C.); 40 vol in data set [4] (THF, 25° C.); 40 vol in data set [4] (acetone, 50° C.); 40 vol in data set [4] (methanol, 50° C.). Besides, the “solubility in the solvents tested (in words)” value in data set [4] was “low solubility”. For the same molecule, the “hygroscopicity (in words)” value in data set [5] (setting [7]) is reported as “potentially hygroscopic”; in data set [5] (setting [8]) it was “possibly hygroscopic”.

Take `C=C(C)C(=O)Nc1ccc(-c2c(C3=CC[C@H](C(=O)N4CCCC4)CC3)c3c(N)ncnc3n2C)c(C)c1.CS(=O)(=O)O` [Compound II-5]: in data set [2], the “XRPD after storage at 40° C./75% RH for 7 days” value is “no change”. For the same molecule, in data set [5], the “hygroscopicity (in words)” value was “hygroscopic”.

For the molecule `C=C(C)C(=O)Nc1ccc(-c2c(-c3ccc(Oc4nccc(C)n4)c(F)c3)c3c(N)ncnc3n2C)cc1` [Compound I-6], the “Solubility in FaSSIF” value in data set [1] (Fasted State Simulated Intestinal Fluid, solids from salt screen in IPA, listed as Mesylate - Form A) was 6.5 µg/mL. Also, the “Final pH” value in data set [1] (listed as Mesylate - Form A) was 4.82.

For `C=C(C)C(=O)Nc1ccc(-c2c(-c3ccc(Oc4nccc(C)n4)c(F)c3)c3c(N)ncnc3n2C)cc1` [Compound I-3], in data set [1] (Fasted State Simulated Intestinal Fluid, solids from salt screen in IPA, listed as HBr - Form A), the “Solubility in FaSSIF” value was 4.5 µg/mL. Further, the “Final pH” value in data set [1] (listed as HBr - Form A) is listed as 5.5.

On to `C=C(C)C(=O)Nc1ccc(-c2c(C3=CC[C@H](C(=O)N4CCCC4)CC3)c3c(N)ncnc3n2C)c(C)c1` [Compound II-1, (R)—N-(4-(4-amino-7-methyl-5-(4-(pyrrolidine-1-carbonyl)cyclohex-1-en-1-yl)-7H-pyrrolo[2,3-d]pyrimidin-6-yl)-3-methylphenyl)methacrylamide], for which the “XRPD after storage at 40° C./75% RH for 7 days” value is “no change; also recorded: Unchanged” in data set [2] (listed as Compound II-1 Form A) and “Unchanged” in data set [2] (listed as Compound II-1 Form B). The “solubility (solvent volumes to give a clear solution)” value stood at 10 vol in data set [4] (10% H2O/IPA, 25° C.); 20 vol in data set [4] (THF, 25° C.); 20 vol in data set [4] (ethanol, 25° C.). Further, the “solubility in the solvents tested (in words)” value in data set [4] is listed as “reasonable solubility in polar solvents”. Besides, the “hygroscopicity (in words)” value in data set [5] (listed as Compound 1 Pattern 2) is “hygroscopic”; in data set [5] (listed as Compound II-1 Form A), “slightly hygroscopic”.

With `C=C(C)C(=O)Nc1ccc(-c2c(-c3ccc(Oc4nccc(C)n4)c(F)c3)c3c(N)ncnc3n2C)cc1.Cl` [Compound I-1, N-(4-(4-amino-5-(3-fluoro-4-((4-methylpyrimidin-2-yl)oxy)phenyl)-7-methyl-7H-pyrrolo[2,3-d]pyrimidin-6-yl)phenyl)methacrylamide hydrochloride], the Solubility in data set [1] (Fasted State Simulated Intestinal Fluid (FaSSIF), fassif, thermodynamic from solid, Fasted State Simulated Intestinal Fluid, solids from salt screen in IPA) is 5.1 µg/mL; in data set [6] (ethanol), 2300 µg/mL; in data set [6] (methanol), 18700 µg/mL. Also, the “Final pH” value in data set [1] is recorded as 4.06.

Take `C#Cc1cc(OC)c(-c2c(-c3ccc(Oc4nccc(C)n4)c(F)c3)c3c(C)ncnc3n2C)cn1.O=S(=O)(O)O` [Compound III-4]: in data set [2] (listed as Compound III-1 sulfate salt), the “XRPD after storage at 40° C./75% RH for 7 days” value is given as “small changes in the XRPD diffractogram”. The “XRPD of residual solids after solubility measurement” value in data set [3] (FaSSIF) is “too poorly crystalline to assign”. Moreover, the “solubility in FaSSIF (in words)” value in data set [3] is listed as “slightly more soluble than the chloride salt”. In data set [3] (simulated fed state intestinal fluid), the “solubility in FeSSIF (in words)” value is reported as “slightly more soluble than the chloride salt”.

A word on the Solubility: it is the dissolved amount per volume that the medium holds.
